Where two headings read alike, the source gives them in different places.
Experiments:
[1] = CEM cell growth inhibition (XTT, noninfected cells); format: cell-based; settings: human, CEM Cell Assay, drug alone, read-out: IC50 (Inhibitory Concentration where drug alone inhibits cell growth)
Method: (§1) Yet another test system employed to determine antiviral activity is called the CEM cell assay.
(§2) T4 lymphocytes (CEM cell line) are exposed to HIV at a virus to cell ratio approximately 0.05, and plated along with noninfected control cells in 96-well microliter plates.
(§3) The candidate agent is dissolved in dimethyl sulfoxide (unless otherwise noted), then diluted 1:200 in cell culture medium. Further dilutions (half-log10) are prepared before adding to an equal volume of medium containing either infected or noninfected cells. Cultures are incubated at 37° in a 5% carbon dioxide atmosphere for 6 or 7 days. The tetrazolium salt, XTT, is added to all wells, and cultures are incubated to allow formazan color development by viable cells (J. National Cancer Institute, 1989;81:577-586). Individual wells are analyzed spectrophotometrically to quantitate formazan production, and in addition are viewed microscopically for detection of viable cells confirmation of protective activity.
(§4) Drug-tested virus-infected cells are compared with drug-treated noninfected cells and with other appropriate controls (untreated infected and untreated noninfected cells, drug-contain wells without cells, etc.) on the same plate. Data are reviewed in comparison with other tests done at the same time and a determination about activity is made.

HIV-1 [2] = test: CEM cell assay, anti-HIV-1 activity; format: cell-based; settings: Human immunodeficiency virus 1, CCRF-CEM, HIV-1, 6 or 7 days, read-out: EC50 (Effective Concentration which protects cells from viral cytopathic effects)
From the text: The test systems utilized to establish the antiviral activity of the arylthio compounds of this invention are well recognized in the art and are routinely employed for such purpose. For example, the assay utilized to evaluate the compounds activity against the HIV virus is that employed by the U.S. National Cancer Institute as described by Weislow O. S., et al., J. Natl. Cancer Inst., 1989;81:577-586, incorporated herein by reference.
The procedure is designed to detect agents acting at any stage of the virus reproductive cycle. The assay basically involves the killing of T4 lymphocytes by HIV. Small amounts of HIV are added to cells, and at least two complete cycles of virus reproduction are necessary to obtain the required cell killing. Agents which interact with virions, cells, or virus gene-products to interfere with viral activities will protect cells from cytolysis. The system is automated in several features to accommodate large numbers of candidate agents, and is generally designed to detect anti-HIV activity. However, compounds which degenerate or are rapidly metabolized in the culture conditions may not show activity in this screen.
as §1, §2, §3, §4

HIV-1 [3] = test: HIV H9 cell assay, anti-HIV-1 activity; format: cell-based; settings: Human immunodeficiency virus 1, H9, 168 h, read-out: EC50 (Effective Concentration which protects cells from viral cytopathic effects)
From the text: Another test system utilized to evaluate the invention compounds is called HIV H9 assay. The HIV H9 cell assay measures the inhibitor concentration required to suppress HIV-1 virus replication. In this system, viral growth occurs through multiple rounds of the life-cycle. Any suppression of the replication kinetics results in a geometric decrease in virus production. As a result, this assay is a sensitive means of measuring the ability of a compound to inhibit HIV-1 viral replication.
(§5) The H9 T-cell line is batch infected with HIV virus at an M0I of 0.01. After 2 hours absorption, the cells are washed, resuspended in RPMI-1640/10% fetal calf serum, and seeded at […] of a 96-well plate. A duplicate plate of uninfected H9 cells is prepared for the cytotoxicity assay. Drugs are serially diluted 1/3.16 in DMSO, transferred to media at an 8× concentration, and then added to the cultures in triplicate. The final DMSO concentration of 0.002 (0.2%).
(§6) Viral production is measured by RT assay and cytotoxicity is measured by XTT assay at 7 days post-infection. The RT assay is performed as a modification of Borroto-Esoda and Boone, J. Virol., 1991;65:1952-1959 and quantitated using a Molecular Dynamics Phosphoimager with Imagequant software. The XTT assay is performed as a modification of Roehm, et al., J. Immuno. Methods., 1991;142:257-265 and quantitated using a molecular Devices Thermomax plate reader with Softmax software.
(§7) Data is electronically transferred to a Microsoft Excell spreadsheet for analysis. The RT assay values equivalent to 50% and 90% inhibition of virus production are calculated from the untreated controls. The concentrations of inhibitor required to produce these values (IC50 and IC90) are interpolated from data points flanking these RT activities. The XTT assay values equivalent to 50% cytotoxicity are calculated from the untreated controls. The concentrations of inhibitor required to produce this value are interpolated from data points flanking these XTT values.

Stah. aureus RBI = test: Antibacterial activity, microtitration; format: cell-based; settings: Gram (+)
Method: (§8) The compounds are additionally useful as broad spectrum antibiotics. Minimum inhibitory concentrations were determined utilizing microtitration techniques described by Heifetz, et. al., Antimicrobial Agents and Chemotherapy, 1974, Vol. 6, 124. The data establish that the compounds have activity against a broad spectrum of bacteria, both Gram +and Gram -. Accordingly, the compounds can be utilized to treat and prevent bacterial diseases in animals and humans. They can also be used as industrial disinfectants, for example, to reduce bacterial growth in shower stalls and public areas.

Strep. pyogenes c-203 = test: Antibacterial activity, microtitration; format: cell-based; settings: Gram (+)
Method: as §8

E. coli B90 = test: Antibacterial activity, microtitration; format: cell-based; settings: Gram (-)
Method: as §8

E. coli MC4100 = test: Antibacterial activity, microtitration; format: cell-based; settings: Gram (-)
Method: as §8

[4] = H9 cell cytotoxicity (XTT assay, uninfected cells); format: cell-based; settings: human, drug alone, read-out: IC50 (Inhibitory Concentration where drug alone inhibits cell growth)
Method: as §5, §6, §7

[5] = molecular target: T1, HIV-1 Nucleocapsid Protein (NCp7) (Human immunodeficiency virus type 1 group M subtype B, UniProt P12493); test: Zinc extrusion assay (TSQ fluorescence) from the zinc fingers of HIV-1 nucleocapsid protein (NCp7); format: biochemical; settings: 10 μM compound, 2.8 μM NCp7, pH 7.4, 26° C., 90 minutes
T1 construct: The NCp7 protein containing 2 Zn-fingers and 2 Zn ions is incubated with drug
From the text: The compounds of the present invention cause the extrusion of zinc from the nucleocapsid protein (NCp7) of HIV-1. The NC protein is highly conserved among all retroviruses (South T., Blake P., et al., Biochemistry, 1990;29:7786) and is essential for viral infectivity (Aldovini A. and Young R., J. Virology, 1990;64:1920 and Gorelick R., Nigida S., et al., J. Virology, 1990;64:3207). The zinc is normally held in NC proteins by 1 or 2 zinc fingers. In the case of HIV-1, 2 zinc fingers are present (Summers M., South T., et al., Biochemistry, 1990;29:329) and are involved specifically with the PSI site on viral RNA which controls the packaging of viral RNA. Interference of this packaging causes the formation of non-infectious virions (Dannull J., Surovoy A., et al., EMBO, 1994;13:1525). It has previously been shown that compounds that cause zinc extrusion have potent anti-HIV activity in multiple cell lines and against all retroviruses (Rice W., Schaeffer C., et al., Nature, 1993;361:473).
A fluorescence-based assay has been developed to monitor the ejection of zinc from purified HIV-1 NCp7. The fluorophore, N-(6-methoxy-8-quinolyl)-p-toluenesulfonamide (TSQ), has an increased fluorescent signal upon bonding zinc ion in solution. The NCp7 protein containing 2 Zn-fingers and 2 Zn ions is incubated with drug causing the extrusion of Zn ions. The released Zn is then sequestered by the TSQ and the increased fluorescence monitored relative to control. […] Fluorescence (excitation 355 nm emission 400 nm) was monitored versus time. Controls were the NCp7 under assay conditions without drug, and apo NCp7 (no Zn) with drug. The % Zn extrusion was calculated based on the actual fluorescence measured divided by the fluorescence of all theoretical Zn extruded (5.6 μM)×100.
Table 1 below presents data for several invention compounds evaluated in the zinc extrusion assay described above.

HIV-1N119 = test: Anti-HIV activity, HIV-1N119 in CEM cells; format: cell-based; settings: Human immunodeficiency virus 1, CCRF-CEM
Method: as §1, §2, §3, §4
(§9) The compounds of the invention were also evaluated against various other HIV strains and cell lines utilizing the assay methodology described above. The compounds were additionally evaluated against clinical isolates of HIV strains.

HIV-1RF = test: Anti-HIV activity, HIV-1RF in CEM cells; format: cell-based; settings: Human immunodeficiency virus 1, CCRF-CEM
Method: as §1, §2, §3, §4, §9

HIV-1A17 [6] = test: Anti-HIV activity, HIV-1A17 in MT-4 cells; format: cell-based
Method: as §9

SIV = test: Antiviral activity, SIV in CEM cells; format: cell-based; settings: Simian immunodeficiency virus, CCRF-CEM
HIV-1WEIO = test: Anti-HIV activity, clinical isolate HIV-1WEIO in PBL; format: cell-based
Method: as §9

HIV-2ROD = test: Anti-HIV activity, HIV-2ROD in CEM cells; format: cell-based; settings: Human immunodeficiency virus 2, CCRF-CEM
Method: as §1, §2, §3, §4, §9

HIV-1IIIb [7] = test: Anti-HIV activity, HIV-1IIIb in CEM cells; format: cell-based; settings: Human immunodeficiency virus 1, CCRF-CEM
Method: as §1, §2, §3, §4, §9

HIV-16R = test: Anti-HIV activity, HIV-16R in MT-4 cells; format: cell-based, HIV-1
Method: as §9

HIV-1A17 [8] = test: Anti-HIV activity, HIV-1A17 in MT-2 cells; format: cell-based; settings: Human immunodeficiency virus 1, MT2
Method: as §9

HIV-1IIIb [9] = test: Anti-HIV activity, HIV-1IIIb in MT-2 cells; format: cell-based; settings: Human immunodeficiency virus 1, MT2; MT-2, HIV-1IIIb
Method: as §9

[10] = Human immunodeficiency virus 1, MT4, read-out: EC50 (AZT)
[11] = Human immunodeficiency virus 1, MT4

Row | Structure (SMILES) | CC50 [1] | EC50 (HIV-1 [2]) | EC50 (HIV-1 [3]) | Minimum inhibitory concentration (Stah. aureus RBI) | Minimum inhibitory concentration (Strep. pyogenes c-203) | Minimum inhibitory concentration (E. coli B90) | Minimum inhibitory concentration (E. coli MC4100) | CC50 at 168 h [4] | % Zinc Extrusion Relative to Control [5] | other results
1 | NS(=O)(=O)c1ccc(NC(=O)c2ccccc2S)cc1 [Example 6, 2-Thio-N-(4-sulfamoylphenyl)benzamide] | > 100 µM | 5.2 µM | 2.5 µM | 128 | 64 | 32 | 64 | 28 µM | – | –
2 | NS(=O)(=O)c1ccc(NC(=O)c2ccc(SSc3ccc(C(=O)Nc4ccc(S(N)(=O)=O)cc4)cc3)cc2)cc1 [Reference Compound, 4,4dithiobis-4sulfamoyl benzanilide, reference compound] | > 100 µM | > 100 µM | > 100 µM | – | – | – | – | > 100 µM | 0% | –
3 | Cc1cn([C@H]2C[C@H](N=[N+]=[N-])[C@@H](CO)O2)c(=O)[nH]c1=O [AZT, azidothymidine, reference compound] | – | – | – | – | – | – | – | – | – | EC50 (HIV-1N119; read-out: EC50 (AZT)): 0.0444 µM; EC50 (HIV-1RF; read-out: EC50 (AZT)): 0.0006 µM; EC50 (HIV-1A17 [6]; [10]): 0.114 µM; EC50 (SIV; read-out: EC50 (AZT)): 0.245 µM; EC50 (HIV-1WEIO; Human immunodeficiency virus 1, read-out: EC50 (AZT)): 0.003 µM; EC50 (HIV-2ROD; read-out: EC50 (AZT)): 0.00141 µM; EC50 (HIV-1IIIb [7]; read-out: EC50 (AZT)): 0.0045 µM; EC50 (HIV-16R; [10]): > 1 µM
4 | CC(=O)NS(=O)(=O)c1ccc(NC(=O)c2ccccc2SSc2ccccc2C(=O)Nc2ccc(S(=O)(=O)NC(C)=O)cc2)cc1 [Example 4, 2,2'-Dithiobis-N-[4-[(acetylamino)sulfonyl]phenyl]benzamide] | – | – | 4.8 µM | 256 | 64 | 32 | 128 | 27 µM | 87% | EC50 (HIV-1N119): 4.6 µM; EC50 (HIV-1RF; CEM, HIV-1RF, read-out: EC50): 1.5 µM; EC50 (HIV-1A17 [6]; [11]): 8.9 µM; EC50 (SIV; read-out: EC50): 3.4 µM; EC50 (HIV-1WEIO; Human immunodeficiency virus 1): 5.2 µM; EC50 (HIV-2ROD; CEM, HIV-2ROD, read-out: EC50): 3 µM; EC50 (HIV-1IIIb [7]; CEM, HIV-1IIIb, read-out: EC50): 5.2 µM; EC50 (HIV-16R; [11]): 1.9 µM
5 | O=c1[nH]cnc2c1ncn2[C@H]1CC[C@@H](CO)O1 [ddI, dideoxyinosine, reference compound] | – | – | – | – | – | – | – | – | – | EC50 (HIV-1A17 [8]): 4.6 µM; EC50 (HIV-1IIIb [9]): 6 µM
6 | CCC(C)C(NC(=O)c1ccccc1SSc1ccccc1C(=O)NC(C(=O)O)C(C)CC)C(=O)O (racemic) [Example 5, 2-[[2-[(1-Carboxy-2-methylbutylcarbamoyl)phenyldisulfanyl]-benzoyl]-amino]-3-methylpentanoic acid] | 105 µM | 10.5 µM | 1.4 µM | – | – | – | – | 62 µM | 87% | –

From patent publication US5734081A, “Arylthio compounds” (Warner-Lambert Company, priority 1995, dated 1998)
